In patent US10377770B2 (Novartis AG, priority 2015, dated 2019):

Each molecule was assayed against C-Raf FL (full length CRAF with Y340E and Y341E activating mutations, co-expressed with h14-3-3 zeta) (Homo sapiens (Human), UniProt P04049, Y340E/Y341E) (assay: In vitro Raf activity determination, AlphaScreen p-MEK readout, c-Raf (C-Raf FL)). Details: c-Raf approximately 4 nM, ATP 1 μM, pre-incubation 60 minutes, reaction 1 hour.
Chain of C-Raf FL (full length CRAF with Y340E and Y341E activating mutations, co-expressed with h14-3-3 zeta) (P04049 whole entry Y340E/Y341E): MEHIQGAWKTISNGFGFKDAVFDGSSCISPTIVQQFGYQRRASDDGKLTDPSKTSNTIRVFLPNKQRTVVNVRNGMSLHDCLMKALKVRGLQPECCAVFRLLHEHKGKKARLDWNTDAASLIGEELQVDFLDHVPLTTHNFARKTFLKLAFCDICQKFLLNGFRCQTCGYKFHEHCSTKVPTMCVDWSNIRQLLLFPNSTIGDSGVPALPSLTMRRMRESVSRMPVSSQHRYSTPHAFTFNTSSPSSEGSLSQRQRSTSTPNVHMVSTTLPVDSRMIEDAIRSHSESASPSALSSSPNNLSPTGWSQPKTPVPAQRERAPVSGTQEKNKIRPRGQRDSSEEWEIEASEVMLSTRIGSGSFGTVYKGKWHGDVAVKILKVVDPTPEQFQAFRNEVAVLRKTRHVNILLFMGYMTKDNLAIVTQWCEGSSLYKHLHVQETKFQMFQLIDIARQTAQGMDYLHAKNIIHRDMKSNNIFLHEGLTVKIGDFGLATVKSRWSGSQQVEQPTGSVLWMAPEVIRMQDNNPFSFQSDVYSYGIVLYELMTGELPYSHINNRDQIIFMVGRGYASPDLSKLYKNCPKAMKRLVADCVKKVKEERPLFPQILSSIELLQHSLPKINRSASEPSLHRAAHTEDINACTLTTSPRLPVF
Chain of C-Raf FL (full length CRAF with Y340E and Y341E activating mutations, co-expressed with h14-3-3 zeta) (P63104 whole entry partner): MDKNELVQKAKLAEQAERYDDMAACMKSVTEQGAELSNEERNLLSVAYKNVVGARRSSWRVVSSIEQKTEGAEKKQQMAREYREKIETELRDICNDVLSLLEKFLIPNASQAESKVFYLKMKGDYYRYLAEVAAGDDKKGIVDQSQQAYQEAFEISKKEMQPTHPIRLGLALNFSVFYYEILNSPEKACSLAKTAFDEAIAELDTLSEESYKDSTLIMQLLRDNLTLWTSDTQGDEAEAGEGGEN
Type: biochemical
Method in brief: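 Full-length C-Raf (~4 nM) pre-incubated 60 min at room temperature with compound and kinase-dead biotinylated MEK1 (~10 nM) in Tris pH 7.5, 15 mM MgCl2, BSA, DTT. Reaction started with 1 μM ATP and run 1 h at room temperature. Phospho-MEK detected by AlphaScreen with anti-p-MEK antibody.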
In the case of `Cc1ccc(NC(=O)c2ccnc(C(C)(F)F)c2)cc1-c1cnc2c(c1)[C@@]1(C)CCOCC[C@@H]1C(=O)N2CCO` (relative stereo) [Example 352, 2-(1,1-difluoroethyl)-N-((5a,11b-trans)-3-(7-(2-hydroxyethyl)-11b-methyl-6-oxo-1,2,4,5,5a,6,7,11b-octahydrooxepino[4,5-c][1,8]naphthyridin-10-yl)-4-methylphenyl)isonicotinamide], the IC50 is reported as 100 pM.
Work on `Cc1ccc(NC(=O)c2ccnc(C(C)(F)F)c2)cc1-c1ccc2c(c1)N1CCOC[C@@H]1C[C@@H]2O` (single isomer, unassigned) [Example 14] yielded an IC50 of 34 pM.
`Cc1ccc(NC(=O)c2ccnc(C(C)(F)F)c2)cc1-c1ccc2c(c1)N1CCOC[C@H]1C[C@@H]2O` (single isomer, unassigned) [Example 19] was tested, and the IC50 was 19 pM.
Work on `Cc1ccc(NC(=O)c2ccnc(C(C)(F)F)c2)cc1-c1ccc2c(c1)N1CCOC[C@@H]1C[C@H]2O` (single isomer, unassigned) [Example 20] yielded an IC50 of 25 pM.
Molecule `Cc1ccc(NC(=O)c2ccnc(C(C)(F)F)c2)cc1-c1ccc2c(c1)N1CCOC[C@H]1C(CO)(CO)C2` (single isomer, unassigned) [Example 52] has an IC50 of 160 pM.
`Cc1ccc(NC(=O)c2ccnc(C(C)(F)F)c2)cc1-c1ccc2c(c1)N1CCOCC1C(F)(CO)C2` (single isomer, unassigned) [Example 82, 2-(1,1-difluoroethyl)-N-(3-(5-fluoro-5-(hydroxymethyl)-1,2,4,4a,5,6-hexahydro-[1,4]oxazino[4,3-a]quinolin-9-yl)-4-methylphenyl)isonicotinamide] showed an IC50 of 170 pM.
`Cc1ccc(NC(=O)c2ccnc(C(C)(F)F)c2)cc1-c1ccc2c(c1)N1CCOCC1C(F)(CO)C2` (single isomer, unassigned) [Example 83, 2-(1,1-difluoroethyl)-N-(3-(5-fluoro-5-(hydroxymethyl)-1,2,4,4a,5,6-hexahydro-[1,4]oxazino[4,3-a]quinolin-9-yl)-4-methylphenyl)isonicotinamide] showed an IC50 of 850 pM.
`Cc1ccc(NC(=O)c2ccnc(C(F)(F)F)c2)cc1-c1cnc2c(c1)N1CCOCC1C(C)(C)C2O` (single isomer, unassigned) [Example 334, N-(3-(6-hydroxy-5,5-dimethyl-1,2,4,4a,5,6-hexahydro-[1,4]oxazino[4,3-a][1,5]naphthyridin-9-yl)-4-methylphenyl)-2-(trifluoromethyl)isonicotinamide] showed an IC50 of 400 pM.
In the case of `Cc1ccc(NC(=O)c2ccnc(C(F)(F)F)c2F)cc1-c1cnc2c(c1)C1(C)CCOCCC1C(=O)N2CCO` (single isomer, unassigned) [Example 354, 3-fluoro-N-(3-((5a,11b-trans)-7-(2-hydroxyethyl)-11b-methyl-6-oxo-1,2,4,5,5a,6,7,11b-octahydrooxepino[4,5-c][1,8]naphthyridin-10-yl)-4-methylphenyl)-2-(trifluoromethyl)isonicotinamide], the IC50 is reported as 300 pM.
For `Cc1ccc(NC(=O)c2ccnc(C(F)(F)F)c2)cc1-c1cnc2c(c1)C1(C)CCOCCC1C(=O)N2CCO` (single isomer, unassigned) [Example 355, N-(3-((5a,11b-trans)-7-(2-hydroxyethyl)-11b-methyl-6-oxo-1,2,4,5,5a,6,7,11b-octahydrooxepino[4,5-c][1,8]naphthyridin-10-yl)-4-methylphenyl)-2-(trifluoromethyl)isonicotinamide], the IC50 was 1200 pM.
Work on `Cc1ccc(NC(=O)c2ccnc(C(F)(F)F)c2)cc1-c1cnc2c(c1)C1(C)CCOCCC1C(=O)N2CCO` (single isomer, unassigned) [Example 356, N-(3-((5a,11b-trans)-7-(2-hydroxyethyl)-11b-methyl-6-oxo-1,2,4,5,5a,6,7,11b-octahydrooxepino[4,5-c][1,8]naphthyridin-10-yl)-4-methylphenyl)-2-(trifluoromethyl)isonicotinamide] yielded an IC50 of 100 pM.
`Cc1ccc(NC(=O)c2cncc(C(F)(F)F)c2)cc1-c1cnc2c(c1)C1(C)CCOCCC1C(=O)N2CCO` (single isomer, unassigned) [Example 358, N-(3-((5a,11b-trans)-7-(2-hydroxyethyl)-11b-methyl-6-oxo-1,2,4,5,5a,6,7,11b-octahydrooxepino[4,5-c][1,8]naphthyridin-10-yl)-4-methylphenyl)-5-(trifluoromethyl)nicotinamide] gave an IC50 of 100 pM.
`Cc1ncc(NC(=O)c2cccc(C(F)(F)F)c2)cc1-c1cnc2c(c1)C1(C)CCOCCC1C(=O)N2CCO` (single isomer, unassigned) [Example 359, N-(5-((5a,11b-trans)-7-(2-hydroxyethyl)-11b-methyl-6-oxo-1,2,4,5,5 a,6,7,11b-octahydrooxepino[4,5-c][1,8]naphthyridin-10-yl)-6-methylpyridin-3-yl)-3-(trifluoromethyl)benzamide] showed an IC50 of 300 pM.
`CCN1C(=O)C2COCCN2c2cc(-c3cc(NC(=O)c4ccnc(C(F)(F)F)c4)ccc3C)cnc21` (stereo in doubt) [Example 114, (S)-N-(3-(6-Ethyl-5-oxo-1,2,4,4a,5,6-hexahydropyrido[2′,3′:5,6]pyrazino[2,1-c][1,4]oxazin-9-yl)-4-methylphenyl)-2-(trifluoromethyl)isonicotinamide] showed an IC50 of 70 pM.
`CCN1C(=O)C2COCCN2c2cc(-c3cc(NC(=O)c4ccnc(C(F)(F)F)c4)ccc3C)cnc21` (stereo in doubt) [Example 115, (R)-N-(3-(6-ethyl-5-oxo-1,2,4,4a,5,6-hexahydropyrido2′,3′:5,6]pyrazino[2,1-c][1,4]oxazin-9-yl)-4-methylphenyl)-2-(trifluoromethyl)isonicotinamide] showed an IC50 of 11 pM.
With `CCN1C(=O)C2[C@H]3COC[C@H]3[C@@H]2c2cc(-c3cc(NC(=O)c4ccnc(C(F)(F)F)c4)ccc3C)cnc21` (stereo in doubt) [Example 268, N-(3-((6aS, 6bS, 9aS, 9bS)-5-ethyl-6-oxo-5,6,6a,6b,7,9,9a,9b-octahydrofuro[3′,4′: 3,4]cyclobuta[1,2-c][1,8]naphthyridin-2-yl)-4-methylphenyl)-2-(trifluoromethyl) isonicotinamide] the IC50 was 300 pM.
In the case of `CCN1C(=O)[C@@H]2COCC[C@@]2(C)c2cc(-c3cc(NC(=O)c4ccnc(C(C)(F)F)c4)ccc3C)cnc21` (stereo in doubt) [Example 343, 2-(1,1-difluoroethyl)-N-(3-((4a,10b-trans)6-ethyl-10b-methyl-5-oxo-2,4,4a,5,6,10b-hexahydro-1H-pyrano[3,4-c][1,8]naphthyridin-9-yl)-4-methylphenyl)isonicotinamide], the IC50 is reported as 200 pM.
Molecule `CCN1C(=O)[C@H]2COCC[C@]2(C)c2cc(-c3cc(NC(=O)c4ccnc(C(C)(F)F)c4)ccc3C)cnc21` (stereo in doubt) [Example 344, 2-(1,1-difluoroethyl)-N-(3-((4a,10b-trans)6-ethyl-10b-methyl-5-oxo-2,4,4a,5,6,10b-hexahydro-1H-pyrano[3,4-c][1,8]naphthyridin-9-yl)-4-methylphenyl)isonicotinamide] has an IC50 of 100 pM.
For `CCN1C(=O)C2COCC[C@]2(C)c2cc(-c3cc(NC(=O)c4cncc(C(F)(F)F)c4)ccc3C)cnc21` (stereo in doubt) [Example 345, N-(3-((4a,10b-trans)-6-ethyl-10b-methyl-5-oxo-1,4,4a,5,6,10b-hexahydro-2H-pyrano[3,4-c][1,8]naphthyridin-9-yl)-4-methylphenyl)-5-(trifluoromethyl)nicotinamide], the IC50 was 800 pM.
